Laboratory results published in patent US12233081B2, “Hygromycin a compounds and methods of treating spirochete diseases” (priority 2018, dated 2025).
In brackets after ≈: the same amount, converted by molar mass.

Key:
Bacteroides fragilis = test: microbroth dilution MIC; format: cell-based
Excerpt: (§1) AH MIC testing of bacteria followed the Clinical and Laboratory Standards Institute (CLSI) guidelines for antimicrobial testing of aerobic, bacteria (Methods for Dilution Antimicrobial Susceptibility Tests for Bacteria that Grow Aerobically; Approved Standard—Tenth Edition, M07-A10; Performance Standards for Antimicrobial Susceptibility Testing; Twenty-fifth Informational Supplement, M100-S25), and guidelines for antimicrobial testing of anaerobic bacteria (Methods for Antimicrobial Susceptibility Testing of Anaerobic Bacteria, 8th Edition. M11-A8). Compounds of the invention can also be tested for activity as described herein.
(§2) Briefly, the microbroth dilution MIC method was used to quantitatively measure the in vitro antibacterial activity of hygromycin A against the given bacterial isolates shown in the table below. S. aureus, E. coli and P. aeruginosa were grown in cation-adjusted Mueller-Hinton broth, anaerobes were grown in Schaedler Anaerobe Media, Borrelia species were grown in BSK-II medium. Bacteria from liquid cultures were diluted into the assay plate to achieve 5×10^5 CFU/mL. Assays plates were prepared by 2-fold dilution of compound across the plate and included a positive growth control. […] Borrelia species were incubated in a microaerophilic chamber at 34° C. for 5-7 days and scored visually for medium color change from pink to yellow of the phenol red present in the medium. The lowest concentration of antibiotics that pre vented color change was interpreted, as the MIC.

Bifidobacterium longum = test: microbroth dilution MIC; format: cell-based
Excerpt: as §1, §2

Borrelia afzelii = test: microbroth dilution MIC; format: cell-based; conditions: Borreliella afzelii
Excerpt: as §1, §2

Borrelia bavariensis = test: microbroth dilution MIC; format: cell-based; conditions: Borreliella bavariensis
Excerpt: as §1, §2

Borrelia burgdorferi = test: microbroth dilution MIC; format: cell-based; conditions: Borreliella burgdorferi
Excerpt: as §1, §2

Borrelia garinii = test: microbroth dilution MIC; format: cell-based; conditions: Borreliella garinii
Excerpt: as §1, §2

Borrelia turcica = test: microbroth dilution MIC; format: cell-based
Excerpt: as §1, §2

E. coli = test: microbroth dilution MIC; format: cell-based; conditions: Escherichia coli
Excerpt: as §1, §2

Enterococcus faecalis = test: microbroth dilution MIC; format: cell-based
Excerpt: as §1, §2

Lactobacillus reuteri = test: microbroth dilution MIC; format: cell-based; conditions: Limosilactobacillus reuteri
Excerpt: as §1, §2

P. aeruginosa = test: microbroth dilution MIC; format: cell-based; conditions: Pseudomonas aeruginosa
Excerpt: as §1, §2

S. aureus = test: microbroth dilution MIC; format: cell-based; conditions: Staphylococcus aureus
Excerpt: as §1, §2

B. burgdorferi N40 = test: C3H mice infected with Borrelia burgdorferi, cell counts in skin tissue; format: in vivo; conditions: for # of B. burgdorferi cells in 100 mg skin tissue: 5 days of dosing
Procedure: C3H mice (Charles River Laboratories) are used in classical Lyme disease infection model. Mice were rested for more than 1 day after delivery before infected with 10^5 B. burgdorferi N40 cells by subcutaneous injection. Infection was established for 3 weeks. 100 μl of saline, ceftriaxone or hygromycin A was administered by IP injection. Compounds of the invention can also be tested for efficacy as described herein.
Ceftriaxone (USP grade) was purchased from Sigma-Aldrich. Saline was purchased from Baxter Healthcare. Ceftriaxone powder was dissolved into saline to 31.2 mg/ml solution. Hygromycin A stock solution at 200 mg/ml was diluted into saline to make 50 mg/ml (250 mg/kg), 15 mg/ml (75 mg/kg), 14 mg/ml (70 mg/kg), 10 mg/ml (50 mg/kg) and 5 mg/ml (25 mg/kg) solutions.
In the B. burgdorferi mice infection model, skin is the tissue with highest bacterial burden. After sacrificing mice 2 days after 5 days of dosing, we took 100 mg skin tissue from mouse ear, homogenized the tissue and plated on BSK-II semi-agar plates for cell number counts. No colony appearing on the plates is considered as clearance of the infection.

## CC(=O)[C@H]1O[C@@H](Oc2ccc(/C=C(\C)C(=O)N[C@@H]3[C@H](O)[C@@H](O)[C@H]4OCO[C@H]4[C@@H]3O)cc2O)[C@@H](O)[C@@H]1O [Hygromycin A]
Bacteroides fragilis
  MIC: 128 µg/mL (≈ 250 µM)
Bifidobacterium longum
  MIC: 8 µg/mL (≈ 15.6 µM)
Borrelia afzelii
  MIC: 0.25 µg/mL (≈ 0.489 µM)
Borrelia bavariensis
  MIC: 0.25 µg/mL (≈ 0.489 µM)
Borrelia burgdorferi
  MIC: 0.12 µg/mL (≈ 0.235 µM)
Borrelia garinii
  MIC: 0.25 µg/mL (≈ 0.489 µM)
Borrelia turcica
  MIC: 0.25 µg/mL (≈ 0.489 µM)
E. coli
  MIC: 1000 µg/mL (≈ 1960 µM)
Enterococcus faecalis
  MIC: 128 µg/mL (≈ 250 µM)
Lactobacillus reuteri
  MIC: 32 µg/mL (≈ 62.6 µM)
P. aeruginosa
  MIC: > 1000 µg/mL
S. aureus
  MIC: 32 µg/mL (≈ 62.6 µM)
B. burgdorferi N40; 25 mg/kg Oral gavage
  # of B. burgdorferi cells in 100 mg skin tissue: <1
B. burgdorferi N40; 50 mg/kg Oral gavage
  # of B. burgdorferi cells in 100 mg skin tissue: <1
B. burgdorferi N40; 70 mg/kg Oral gavage
  # of B. burgdorferi cells in 100 mg skin tissue: <1
B. burgdorferi N40; 75 mg/kg IP injection
  # of B. burgdorferi cells in 100 mg skin tissue: <1
B. burgdorferi N40; 250 mg/kg Oral gavage
  # of B. burgdorferi cells in 100 mg skin tissue: <1
B. burgdorferi N40; 5 days of treatment, both IP injection and oral gavage
  clearance of the Borrelia burgdorferi infection: cleared the Borrelia burgdorferi infection
